# Assay results as given in PubChem BioAssay (NCI).
#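 Compound exposure: 48 hours, 5 concentrations, 96-well plates. Abbreviation: GI50, concentration required for 50% inhibition of growth. TGI is the concentration that stops growth completely.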
# What was measured:
# Assay in all cases: NCI tumour cell line growth inhibition, 48 h
# SK-MEL-28 melanoma = tested on: SK-MEL-28 melanoma
# A549 NSCLC = tested on: A549 NSCLC
# HCT-116 colon = tested on: HCT-116 colon
# SK-OV-3 ovarian = tested on: SK-OV-3 ovarian
# HCC-2998 colon = tested on: HCC-2998 colon
# SK-MEL-2 melanoma = tested on: SK-MEL-2 melanoma
# 786-0 renal = tested on: 786-0 renal
# COLO 205 colon = tested on: COLO 205 colon
# RPMI-8226 leukemia = tested on: RPMI-8226 leukemia
# SK-MEL-5 melanoma = tested on: SK-MEL-5 melanoma
Structure (SMILES),GI50 (SK-MEL-28 melanoma),TGI (SK-MEL-28 melanoma),GI50 (A549 NSCLC),TGI (A549 NSCLC),GI50 (HCT-116 colon),TGI (HCT-116 colon),GI50 (SK-OV-3 ovarian),TGI (SK-OV-3 ovarian),GI50 (HCC-2998 colon),TGI (HCC-2998 colon),GI50 (SK-MEL-2 melanoma),TGI (SK-MEL-2 melanoma),GI50 (786-0 renal),TGI (786-0 renal),GI50 (COLO 205 colon),TGI (COLO 205 colon),GI50 (RPMI-8226 leukemia),TGI (RPMI-8226 leukemia),GI50 (SK-MEL-5 melanoma),TGI (SK-MEL-5 melanoma)
COc1cccc(/C=N/NC(=O)c2ccccc2Nc2ccnc(C(F)(F)F)c2)c1O,1.48 µM,> 34.7 µM,0.87 µM,> 34.1 µM,0.311 µM,> 67.2 µM,0.583 µM,31 µM,0.29 µM,33.5 µM,2.13 µM,> 44 µM,0.552 µM,> 37.5 µM,0.353 µM,> 53.8 µM,0.156 µM,0.983 µM,0.418 µM,5.65 µM
O=NN(Cc1ccc(Cl)cc1)C(C(=O)O)c1ccccc1 (stereo not given),,> 100 µM,,> 100 µM,,> 100 µM,,> 100 µM,,> 100 µM,,> 100 µM,,> 100 µM,,> 100 µM,,> 100 µM,,> 100 µM
CCc1c(Oc2ccc(C(C)=O)cc2)c2ccccc2[nH]c1=O,50.7 µM,> 100 µM,18.5 µM,59.5 µM,18.5 µM,52.8 µM,21 µM,74.5 µM,14.3 µM,30 µM,59.5 µM,> 100 µM,21.7 µM,> 72.1 µM,13.7 µM,40.7 µM,3.65 µM,> 42.5 µM,13 µM,27.5 µM
Cn1cc(-c2cnc3ccc(NC(=O)Nc4ccc(F)c(Br)c4)cc3n2)cn1,1.9 µM,3.76 µM,1.77 µM,4.85 µM,1.87 µM,3.75 µM,2.24 µM,5.99 µM,1.79 µM,3.5 µM,1.97 µM,4.13 µM,1.98 µM,5.9 µM,1.59 µM,3.24 µM,1.25 µM,3.82 µM,1.63 µM,3.03 µM
CN(C(=O)C12C3C4C1C1C2C3C41C(=O)C(C)(C)C)C(C)(C)C (stereo not given),,> 100 µM,,> 100 µM,,> 100 µM,,> 100 µM,,> 100 µM,,> 100 µM,,> 100 µM,,> 100 µM,,> 100 µM,,> 100 µM
CCNCCNc1cc(-c2ccc(C(=O)OC)cc2)c(C#N)c2nc3ccccc3n12,1.72 µM,3.45 µM,1.46 µM,5.01 µM,0.758 µM,2.09 µM,2 µM,4.8 µM,2.3 µM,> 100 µM,5.15 µM,31.5 µM,1.56 µM,3.46 µM,0.623 µM,2.24 µM,1.99 µM,5.3 µM,1.7 µM,3.11 µM
CC1OC(O[C@H]2C[C@@H](O)[C@]3(CO)[C@H]4[C@H](O)C[C@]5(C)[C@@H](C6=CC(=O)OC6)CC[C@]5(O)[C@@H]4CC[C@]3(O)C2)C(O)C(O)C1O (stereo not given in full),21.7 µM,46.3 µM,21.2 µM,39 µM,19 µM,33.7 µM,18.8 µM,33.8 µM,20.2 µM,36.6 µM,20.2 µM,44.8 µM,19.9 µM,36.3 µM,18.5 µM,33.7 µM,26.5 µM,54.5 µM,17.7 µM,35.2 µM
COC(=O)CCCCN=Cc1c(O)c(O)c(C(C)C)c2cc(C)c(-c3c(C)cc4c(C(C)C)c(O)c(O)c(C=NCCCCC(=O)OC)c4c3O)c(O)c12,1.77 µM,> 32.5 µM,0.979 µM,> 32.5 µM,0.904 µM,4.98 µM,0.976 µM,3.08 µM,1.19 µM,> 32.5 µM,1.38 µM,> 32.5 µM,1.34 µM,15.1 µM,0.85 µM,2.44 µM,0.616 µM,20.3 µM,1.83 µM,8.75 µM
Cc1cc(I)cc(CNCCCN2CCSCC2)c1O,17 µM,32.4 µM,18.7 µM,39.2 µM,11.1 µM,23 µM,17.9 µM,36.4 µM,12.7 µM,26.9 µM,18.6 µM,35.4 µM,13 µM,25.8 µM,15 µM,30.8 µM,12.4 µM,30.8 µM,10.7 µM,22.5 µM
N#CSCC1CC(O)(c2ccccc2)C(c2ccccc2)C(c2ccc(Cl)cc2)O1 (stereo not given),1.97 µM,4.5 µM,1.78 µM,4.24 µM,0.569 µM,1.99 µM,2.68 µM,6.21 µM,1.84 µM,3.35 µM,2.33 µM,4.37 µM,1.74 µM,3.28 µM,1.46 µM,2.84 µM,1.44 µM,4.68 µM,1.63 µM,2.98 µM
CN(C)CCNc1cc(-c2ccccc2)nc2ccccc12,13.4 µM,28.5 µM,4.83 µM,43.5 µM,3.75 µM,18.8 µM,9.24 µM,39 µM,10.2 µM,25.1 µM,11.3 µM,24.9 µM,6.87 µM,23.8 µM,2.92 µM,7.74 µM,4.09 µM,21.8 µM,10.1 µM,22.4 µM
COC(=O)C(=O)C(C(=O)C=C(C)C)C(=O)C(=O)Nc1cc(C(F)(F)F)ccc1Cl (stereo not given),,> 100 µM,,> 100 µM,,> 100 µM,,> 100 µM,,> 100 µM,,> 100 µM,,> 100 µM,,> 100 µM,,67 µM,,> 100 µM
CCOc1ccc2c(c1)[n+]([O-])c(S(=O)(=O)c1ccc(C)cc1)c(N)[n+]2[O-],,> 100 µM,,> 100 µM,,> 100 µM,,> 100 µM,,> 100 µM,,> 100 µM,,> 100 µM,,> 100 µM,,> 100 µM,,> 100 µM
CCCCCCCCCC[C@@H](O)[C@@H]1CC[C@H]([C@H]2CC[C@@H]([C@@H](O)CCCCCCCCCC[C@H]3CC(CC(C)=O)C(=O)O3)O2)O1 (stereo not given in full),,24.4 µM,,30.6 µM,,17.8 µM,,34.1 µM,,47 µM,,30.7 µM,,28.5 µM,,28.8 µM,,15.4 µM,,10.7 µM
COc1cnc2cc(C(=O)O)c3c([N+](=O)[O-])cccc3c2c1,,> 100 µM,,> 100 µM,,> 100 µM,,> 100 µM,,> 100 µM,,> 100 µM,,> 100 µM,,> 100 µM,,> 100 µM,,> 100 µM
C=C(CN1CCc2ccccc2C1)c1ccc(C(=O)Nc2cnccn2)cc1,25.4 µM,> 100 µM,31 µM,> 100 µM,16.6 µM,68 µM,24.3 µM,84.5 µM,36.1 µM,> 100 µM,46.6 µM,> 100 µM,25.4 µM,> 100 µM,17.5 µM,40.1 µM,3.35 µM,10.3 µM,20.8 µM,61 µM
Cc1cc(N(CCOS(C)(=O)=O)CCOS(C)(=O)=O)ccc1C=Nc1ccc(-c2nc(Cc3ccccc3)sc2C)cc1,,35.3 µM,,21.6 µM,,35 µM,,4.56 µM,,15.7 µM,,34.9 µM,,15.1 µM,,4.76 µM,,31.8 µM,,26.7 µM
O=c1oc2ccc(F)cc2c(=O)n1-c1ccc(F)cc1F,2.79 µM,11.7 µM,3.35 µM,> 100 µM,2.86 µM,9.6 µM,1.72 µM,4.6 µM,3.9 µM,27.7 µM,1.98 µM,5.04 µM,3.13 µM,11.4 µM,3.56 µM,12.5 µM,2.22 µM,7.09 µM,1.76 µM,3.69 µM
COc1ccc(C2=NN(C(=O)c3cc(OC)c(OC)c(OC)c3)C(c3ccc(C#N)cc3)C2)cc1OC (stereo not given),1.3 µM,> 55 µM,2.32 µM,> 100 µM,1.63 µM,> 44.2 µM,0.872 µM,8.32 µM,2.16 µM,6.63 µM,1.58 µM,> 20.3 µM,2.14 µM,> 48.8 µM,1.47 µM,4.03 µM,3.54 µM,> 100 µM,0.483 µM,6.67 µM
COc1cc(OC)cc(-c2ccc(-c3ccc(C(=N)N)o3)o2)c1,1.82 µM,3.67 µM,3.78 µM,13.3 µM,2.51 µM,6.11 µM,14.9 µM,28.5 µM,2.05 µM,3.94 µM,2.44 µM,5.35 µM,4.15 µM,15.6 µM,1.84 µM,3.79 µM,2.25 µM,5.68 µM,1.95 µM,3.39 µM
Cc1ccc(C)c(NC(=O)CC/C(=N\NC(=O)C(=O)NN)C(C)C(=O)c2ccc(O)cc2)c1 (stereo not given),,> 100 µM,,> 100 µM,,> 100 µM,,> 100 µM,,> 100 µM,,> 100 µM,,> 100 µM,,> 100 µM,,> 100 µM,,> 100 µM
O=C(N/N=C/c1ccccc1O)c1cccc([N+](=O)[O-])c1,,> 100 µM,,> 100 µM,,> 100 µM,,> 78.3 µM,,> 100 µM,,> 100 µM,,> 100 µM,,> 100 µM,,> 100 µM,,> 61.3 µM
CN1CCN(Cc2ccc(NC(=O)c3cncc(C#Cc4cnc(N)c5ccc(C#N)cc45)c3)cc2C(F)(F)F)CC1,0.0273 µM,0.519 µM,0.0353 µM,0.919 µM,0.0254 µM,0.672 µM,0.0212 µM,0.599 µM,0.901 µM,11.1 µM,0.0217 µM,0.353 µM,0.111 µM,1.01 µM,0.0178 µM,0.722 µM,0.0775 µM,1.25 µM,0.176 µM,0.696 µM
O=C(NCCOCCOCCNc1cccc2c1C(=O)N(C1CCCNC1=O)C2=O)c1cc2c(o1)C(=O)c1ccccc1C2=O (stereo not given),2.31 µM,4.61 µM,2.11 µM,4.8 µM,2.06 µM,5.54 µM,2.87 µM,7.93 µM,2.01 µM,4.02 µM,2.11 µM,6.1 µM,3.26 µM,10.9 µM,2.1 µM,4.12 µM,3.29 µM,14.1 µM,0.707 µM,1.99 µM
O=C(c1ccco1)c1nc2ccc(C(F)(F)F)cc2[n+]([O-])c1C(F)(F)F,23.5 µM,> 100 µM,33.7 µM,> 100 µM,> 100 µM,> 100 µM,33.4 µM,> 100 µM,85.6 µM,> 100 µM,87.7 µM,> 100 µM,> 100 µM,> 100 µM,77.8 µM,> 100 µM,20.3 µM,93 µM,31.6 µM,> 100 µM
